In ChEMBL document CHEMBL3390841, “Design and synthesis of novel N,N-glycoside derivatives of 3,3-diindolylmethanes as potential antiproliferative agents” (Medchemcomm, 2012):
The source made the active and inactive calls. No cut-off for these calls is given here.

Assays:
A549 = assay: Cytotoxicity against human A549 cells assessed as growth inhibition after 48 hrs by MTT assay; type: functional, cell-based
HeLa [1] = assay: Cytotoxicity against human HeLa cells assessed as growth inhibition after 48 hrs by MTT assay; type: functional, cell-based; design: unit not given here
MCF7 = assay: Cytotoxicity against human MCF7 cells assessed as growth inhibition after 48 hrs by MTT assay; type: functional, cell-based
HeLa [2] = assay: Cytotoxicity against human HeLa cells assessed as inhibition of colony formation at 0.1 to 1 umol after 5 days by crystal violet staining assay; type: functional, cell-based
HeLa [3] = assay: Antimigratory activity against human HeLa cells in low serum containing medium at 0.3 to 1 umol after 24 hrs by wound healing assay; type: functional, cell-based
HeLa [4] = assay: Induction of apoptosis in human HeLa cells assessed as upregulation of par-4 protein expression after 24 hrs by Western blot analysis; type: functional, cell-based
HeLa [5] = assay: Induction of apoptosis in human HeLa cells assessed as downregulation of GRP78 protein expression after 24 hrs by Western blot analysis; type: functional, cell-based
HeLa [6] = assay: Induction of apoptosis in human HeLa cells assessed as downregulation of Bcl-2 protein expression after 24 hrs by Western blot analysis; type: functional, cell-based
HeLa [7] = assay: Induction of apoptosis in human HeLa cells assessed as downregulation of survivin protein expression after 24 hrs by Western blot analysis; type: functional, cell-based
HeLa [8] = assay: Cell cycle arrest in human HeLa cells assessed as accumulation at sub-G1 phase at 0.1 umol after 24 hrs (reference value: 7.8%); type: functional
HeLa [9] = assay: Cell cycle arrest in human HeLa cells assessed as accumulation at sub-G1 phase at 0.3 umol after 24 hrs (reference value: 7.8%); type: functional
HeLa [10] = assay: Cell cycle arrest in human HeLa cells assessed as accumulation at sub-G1 phase at 1 umol after 24 hrs (reference value: 7.8%); type: functional
HeLa [11] = assay: Antimigratory activity against human HeLa cells in low serum containing medium at 25 nmol after 24 hrs by wound healing assay; type: functional, cell-based

Structure (SMILES) | IC50 (A549) [µM] | IC50 (HeLa [1]) | IC50 (MCF7) [µM] | also measured
CCCCCCCC(c1cn([C@@H]2O[C@H](CO)[C@@H](O)[C@H](O)[C@H]2O)c2ccc(Br)cc12)c1cn([C@@H]2O[C@H](CO)[C@@H](O)[C@H](O)[C@H]2O)c2ccc(Br)cc12 | 1.3 | 0.3 | 0.9 | inhibition (HeLa [2]): Active; Activity (HeLa [3]): Active; Activity (HeLa [4]): Dose-dependent effect; Activity (HeLa [5]): Dose-dependent effect; Activity (HeLa [6]): Dose-dependent effect; Activity (HeLa [7]): Dose-dependent effect; Activity (HeLa [8]): 27.8%; Activity (HeLa [9]): 19.3%; Activity (HeLa [10]): 22.4%
CCCCCCCC(c1cn([C@@H]2O[C@H](COC(C)=O)[C@@H](OC(C)=O)[C@H](OC(C)=O)[C@H]2OC(C)=O)c2ccc(Br)cc12)c1cn([C@@H]2O[C@H](COC(C)=O)[C@@H](OC(C)=O)[C@H](OC(C)=O)[C@H]2OC(C)=O)c2ccc(Br)cc12 | 17 | 10 | > 100 | –
Brc1ccc2[nH]cc(C(c3ccccc3)c3c[nH]c4ccc(Br)cc34)c2c1 | 7.5 | 0.9 | 5.5 | –
COc1ccc(C(c2c[nH]c3ccc(Br)cc23)c2c[nH]c3ccc(Br)cc23)cc1 | 10 | 5.5 | 2.3 | –
CC(=O)OC[C@H]1O[C@@H](n2cc(C(c3ccc([N+](=O)[O-])cc3)c3cn([C@@H]4O[C@H](COC(C)=O)[C@@H](OC(C)=O)[C@H](OC(C)=O)[C@H]4OC(C)=O)c4ccc(Br)cc34)c3cc(Br)ccc32)[C@H](OC(C)=O)[C@@H](OC(C)=O)[C@@H]1OC(C)=O | 8 | 3.5 | > 100 | –
CCCCCCCC(c1c[nH]c2ccc([N+](=O)[O-])cc12)c1c[nH]c2ccc([N+](=O)[O-])cc12 | 12.5 | 35 | 5.8 | –
Oc1ccc(C(c2c[nH]c3ccc(Br)cc23)c2c[nH]c3ccc(Br)cc23)cc1 | – | – | 3.5 | –
N#Cc1ccc2[nH]cc(C(c3ccc(Cl)cc3)c3c[nH]c4ccc(C#N)cc34)c2c1 | > 100 | > 100 | 23.6 | –
COc1ccc(C(c2c[nH]c3ccc(Br)cc23)c2c[nH]c3ccc(Br)cc23)c(OC)c1 | 100 | 63.2 | 77.5 | –
CCCCCCCC(c1c[nH]c2ccc(Br)cc12)c1c[nH]c2ccc(Br)cc12 | 3.5 | 1.3 | 5.5 | inhibition (HeLa [2]): Active
CCCCCCCC(c1c[nH]c2ccc(C#N)cc12)c1c[nH]c2ccc(C#N)cc12 | 26 | 7 | 2.5 | –
CC[C@@]1(O)C(=O)OCc2c1cc1n(c2=O)Cc2cc3ccccc3nc2-1 [CAMPTOTHECIN] | – | – | – | Activity (HeLa [8]): 33.1%
Brc1ccc2[nH]cc(C(c3c[nH]c4ccc(Br)cc34)C3CCCCC3)c2c1 | 5.5 | 3.2 | 4.1 | –
N#Cc1ccc2[nH]cc(C(c3ccc(Br)cc3)c3c[nH]c4ccc(C#N)cc34)c2c1 | > 100 | > 100 | 27.1 | –
O=[N+]([O-])c1ccc(C(c2c[nH]c3ccc(Br)cc23)c2c[nH]c3ccc(Br)cc23)cc1 | 5.5 | 1.5 | 3.1 | inhibition (HeLa [2]): Active
CN(C)c1ccc(C(c2c[nH]c3ccc(Br)cc23)c2c[nH]c3ccc(Br)cc23)cc1 | 25 | 12.8 | 24.9 | –
Brc1ccc2[nH]cc(C(c3ccc4ccccc4c3)c3c[nH]c4ccc(Br)cc34)c2c1 | 8.5 | 4.3 | 7.1 | –
COc1cccc(C(c2c[nH]c3ccc(Br)cc23)c2c[nH]c3ccc(Br)cc23)c1OC | 100 | 64.5 | 89 | –

Structure (SMILES) | IC50 (A549) [µM] | IC50 (HeLa [1]) | IC50 (MCF7) [µM] | also measured
c1ccc(C(c2c[nH]c3ccccc23)c2c[nH]c3ccccc23)cc1 | 40 | 21.8 | 22.2 | –
COc1ccc(OC)c(C(c2c[nH]c3ccc(Br)cc23)c2c[nH]c3ccc(Br)cc23)c1 | 10 | 5.1 | 2.8 | –
O=[N+]([O-])c1ccc2[nH]cc(C(c3ccc(Br)cc3)c3c[nH]c4ccc([N+](=O)[O-])cc34)c2c1 | > 100 | > 100 | > 100 | –
Brc1ccc(C(c2c[nH]c3ccc(Br)cc23)c2c[nH]c3ccc(Br)cc23)cc1 | 5.6 | 1.5 | 3.2 | inhibition (HeLa [2]): Active
CC(c1ccccc1)(c1c[nH]c2ccccc12)c1c[nH]c2ccccc12 | 8.5 | 4.2 | 4 | –
OC[C@H]1O[C@@H](n2cc(C(c3ccc(Br)cc3)c3cn([C@@H]4O[C@H](CO)[C@@H](O)[C@H](O)[C@H]4O)c4ccc(Br)cc34)c3cc(Br)ccc32)[C@H](O)[C@@H](O)[C@@H]1O | 2.5 | 27 | 51.1 | –
N#Cc1ccc2[nH]cc(C(c3ccc([N+](=O)[O-])cc3)c3c[nH]c4ccc(C#N)cc34)c2c1 | > 100 | > 100 | 23.6 | –
O=[N+]([O-])c1ccc(C(c2c[nH]c3ccc([N+](=O)[O-])cc23)c2c[nH]c3ccc([N+](=O)[O-])cc23)cc1 | > 100 | > 100 | 22.5 | –
COc1ccc(C(c2c[nH]c3ccc(Br)cc23)c2c[nH]c3ccc(Br)cc23)cc1OC | 12 | 6.1 | 7.8 | –
CN[C@@H]1C[C@H]2O[C@@](C)([C@@H]1OC)n1c3ccccc3c3c4c(c5c6ccccc6n2c5c31)C(=O)NC4 [STAUROSPORINE] | – | – | 0.013 | Activity (HeLa [11]): Active
O=[N+]([O-])c1ccc(C(c2cn([C@@H]3O[C@H](CO)[C@@H](O)[C@H](O)[C@H]3O)c3ccc(Br)cc23)c2cn([C@@H]3O[C@H](CO)[C@@H](O)[C@H](O)[C@H]3O)c3ccc(Br)cc23)cc1 | 2.4 | 30 | 66.7 | –
CC(=O)OC[C@H]1O[C@@H](n2cc(C(c3ccc(Br)cc3)c3cn([C@@H]4O[C@H](COC(C)=O)[C@@H](OC(C)=O)[C@H](OC(C)=O)[C@H]4OC(C)=O)c4ccc(Br)cc34)c3cc(Br)ccc32)[C@H](OC(C)=O)[C@@H](OC(C)=O)[C@@H]1OC(C)=O | 24 | 70 | > 100 | –
Clc1ccc(C(c2c[nH]c3ccc(Br)cc23)c2c[nH]c3ccc(Br)cc23)cc1 | 8.5 | 4.8 | 3.5 | inhibition (HeLa [2]): Active
Oc1cccc(C(c2c[nH]c3ccc(Br)cc23)c2c[nH]c3ccc(Br)cc23)c1 | 8 | 3.9 | 2.8 | –
OC[C@H]1O[C@@H](n2cc(C(c3ccc(Cl)cc3)c3cn([C@@H]4O[C@H](CO)[C@@H](O)[C@H](O)[C@H]4O)c4ccc(Br)cc34)c3cc(Br)ccc32)[C@H](O)[C@@H](O)[C@@H]1O | 2.7 | 32 | 53.2 | –
CCCC(c1c[nH]c2ccc(Br)cc12)c1c[nH]c2ccc(Br)cc12 | 6.5 | 3.9 | 3.6 | –
O=[N+]([O-])c1ccc2[nH]cc(C(c3ccc(Cl)cc3)c3c[nH]c4ccc([N+](=O)[O-])cc34)c2c1 | > 100 | > 100 | > 100 | –
CC(=O)OC[C@H]1O[C@@H](n2cc(C(c3ccc(Cl)cc3)c3cn([C@@H]4O[C@H](COC(C)=O)[C@@H](OC(C)=O)[C@H](OC(C)=O)[C@H]4OC(C)=O)c4ccc(Br)cc34)c3cc(Br)ccc32)[C@H](OC(C)=O)[C@@H](OC(C)=O)[C@@H]1OC(C)=O | 24 | 70 | > 100 | –
